Values joined by “and” are separate entries in the source; they are usually repeats but may differ in a detail not shown here. Identical values can stand only once.
Tests used:
[1] = target: T1, Aromatase (Homo sapiens, UniProt P11511); experiment: Binding affinity to aromatase (unknown origin) assessed as change in gibbs free energy
T1 sequence (P11511 whole entry): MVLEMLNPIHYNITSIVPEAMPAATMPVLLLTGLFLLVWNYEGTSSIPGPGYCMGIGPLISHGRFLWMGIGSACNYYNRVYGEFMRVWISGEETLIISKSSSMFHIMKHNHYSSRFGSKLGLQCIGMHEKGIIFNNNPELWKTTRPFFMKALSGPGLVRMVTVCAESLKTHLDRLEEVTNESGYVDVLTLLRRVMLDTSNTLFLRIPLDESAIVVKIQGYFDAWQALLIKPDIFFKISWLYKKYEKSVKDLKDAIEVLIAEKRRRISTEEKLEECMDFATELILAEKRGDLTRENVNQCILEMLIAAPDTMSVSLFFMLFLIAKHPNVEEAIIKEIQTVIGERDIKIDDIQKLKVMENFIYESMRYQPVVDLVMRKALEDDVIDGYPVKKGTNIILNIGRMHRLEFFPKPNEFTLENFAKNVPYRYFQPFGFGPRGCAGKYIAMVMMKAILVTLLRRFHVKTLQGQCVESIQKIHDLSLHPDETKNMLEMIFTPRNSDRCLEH

[2] = target: T1, Aromatase
[3] = target: T1, Aromatase; remark: listed apart in the source
[4] = target: T1, Aromatase; remark: listed apart in the source

Compound	deltaG [1]	IC50 [2]	IC50 [3]	pIC50 [4]
C[C@]12CCC(=O)C(O)=C1CC[C@@H]1[C@@H]2CC[C@]2(C)C(=O)CC[C@@H]12 [FORMESTANE]	13.35 kcal/mol	562 nM		
C[C@]12CCC(=O)C=C1C=C(CCc1ccccc1)[C@@H]1[C@@H]2CC[C@]2(C)C(=O)CC[C@@H]12		174 nM	661 nM	
C[C@]12C=CC(=O)C=C1C[C@@H](CCc1ccccc1)[C@@H]1[C@@H]2CC[C@]2(C)C(=O)CC[C@@H]12		155 nM	16.7 nM	
C[C@]12CC[C@H](O)CC1=CC[C@@H]1[C@@H]2CC[C@]2(C)C(=O)[C@@H](n3ccnc3)C[C@@H]12				5.481
C[C@]12C=CC(=O)C=C1C[C@@H](CCCc1ccc([N+](=O)[O-])cc1)[C@@H]1[C@@H]2CC[C@]2(C)C(=O)CC[C@@H]12		75.7 nM	12.9 nM	
C[C@]12CCC(=O)C=C1C=C(CCc1ccc(N)cc1)[C@@H]1[C@@H]2CC[C@]2(C)C(=O)CC[C@@H]12		87.9 nM	1250 nM	
C[C@@H]1C[C@@]2(C)C(=CC1=O)CC[C@@H]1[C@@H]2CC[C@]2(C)C(=O)CC[C@@H]12		460 nM	250 nM and 460 nM	
C[C@]12CCC(=O)C=C1C=C(Cc1ccccc1)[C@@H]1[C@@H]2CC[C@]2(C)C(=O)CC[C@@H]12		61 nM	600 nM	
C[C@]12CCC(=O)C=C1C=C(CCc1ccc([N+](=O)[O-])cc1)[C@@H]1[C@@H]2CC[C@]2(C)C(=O)CC[C@@H]12		95.1 nM	4500 nM	
C[C@]12C=CC(=O)C=C1C[C@@H](Cc1ccccc1)[C@@H]1[C@@H]2CC[C@]2(C)C(=O)CC[C@@H]12		19.2 nM	232 nM	
